Structures can show the parent of a compound that is named as a salt.
Columns and labels:
androgen receptor (AR) = biological target: T1, androgen receptor (AR) (Homo sapiens, UniProt P10275, T878A); assay: Androgen-induced PSA (6.1 kb)-luciferase reporter assay in LNCaP cells; type: cell-based; conditions: LNCaP cells transfected with PSA (6.1 kb)-luciferase reporter, R1881 1 nM, 24 h; read-out: PSA-Luc IC50 Range
T1 construct: LNCaP cells were transiently transfected with the PSA (6.1 kb)-luciferase reporter for 24 h; endogenous in cells; host or cells: LNCaP
T1 sequence (P10275 1-920 T878A): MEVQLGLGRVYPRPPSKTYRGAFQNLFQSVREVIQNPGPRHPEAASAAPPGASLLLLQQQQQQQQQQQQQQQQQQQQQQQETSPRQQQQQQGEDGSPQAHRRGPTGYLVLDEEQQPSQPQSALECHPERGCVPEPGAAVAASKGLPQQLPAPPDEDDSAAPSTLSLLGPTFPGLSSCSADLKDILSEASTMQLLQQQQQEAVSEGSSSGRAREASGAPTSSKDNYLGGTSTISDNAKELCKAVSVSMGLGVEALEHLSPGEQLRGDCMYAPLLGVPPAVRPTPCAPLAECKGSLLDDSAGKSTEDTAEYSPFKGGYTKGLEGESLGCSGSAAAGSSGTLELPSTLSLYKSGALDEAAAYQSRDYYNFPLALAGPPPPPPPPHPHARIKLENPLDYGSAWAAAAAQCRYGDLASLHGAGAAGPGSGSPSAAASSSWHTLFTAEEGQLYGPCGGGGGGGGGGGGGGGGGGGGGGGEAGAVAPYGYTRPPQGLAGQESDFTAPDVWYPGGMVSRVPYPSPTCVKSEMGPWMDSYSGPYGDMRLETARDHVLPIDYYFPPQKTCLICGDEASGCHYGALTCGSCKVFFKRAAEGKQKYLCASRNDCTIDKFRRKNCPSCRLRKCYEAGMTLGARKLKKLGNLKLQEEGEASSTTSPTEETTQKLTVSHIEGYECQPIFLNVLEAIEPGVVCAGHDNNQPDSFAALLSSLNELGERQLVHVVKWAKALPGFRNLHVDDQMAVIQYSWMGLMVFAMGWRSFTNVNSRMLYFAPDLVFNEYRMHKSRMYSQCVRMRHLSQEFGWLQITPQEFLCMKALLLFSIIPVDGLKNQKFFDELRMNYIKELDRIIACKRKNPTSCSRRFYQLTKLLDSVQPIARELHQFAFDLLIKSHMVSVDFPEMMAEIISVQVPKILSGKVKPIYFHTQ
Description: The PSA (6.1 kb)-luciferase reporter contains functional AREs (androgen response elements) to which AR binds in response to androgen to induce luciferase activity.
Cells were lysed using Passive Lysis Buffer (Promega) and then collected into V-bottom 96-well tissue culture plates. Lysates were centrifuged at 4° C. for 5 minutes at 3000 rpm. To measure luminescence of LNCaP cell lysates the Firefly Luciferase Assay System (Promega) was employed, according to manufacturer's protocol. Relative luminescence units (RLU) in cell lysates were detected for 10 seconds using Promega GloMax-Multi Detection Luminometer (Promega). Values were normalized to protein content. GraphPad Prism graphing software was used to calculate IC50 values.
Comparisons between treatment and control groups were compared using Two-Way ANOVA with post-hoc Dunnett's and Tukey's tests. Differences were considered statistically significant at P values less than 0.05.

[1] = Microsomal stability assay, mouse liver microsomes; type: in vitro ADME; conditions: mouse, liver microsomes, pH 7.4, mouse liver microsomes, 1 μM compound, 0.5 mg/mL protein, 37° C.; read-out: MLM +30/− NADPH: Clint (μL/min/mg protein)
Description: (§1) Microsomal stability assay is a widely used in vitro model to characterize the metabolic conversion by phase I enzymes, such as cytochrome P450 (CYP) enzymes. Since metabolism is known to be highly variable in different species, microsomal stability assay is commonly run in multiple species. Metabolic stability of testing compound can be evaluated using human, rat, mouse, or other animal liver or intestine microsomes to predict intrinsic clearance.
(§2) The assay was carried out in 96-well microtiter plates at 37° C. Reaction mixtures (25 μL) contained a final concentration of 1 μM test compound, 0.5 mg/mL liver microsomes protein, and 1 mM NADPH and/or 1 mM UDPGA (with alamethicin) in 100 mM potassium phosphate, pH 7.4 buffer with 3 mM MgCl2. The incubation was done with N=1, but duplicate incubation at each time point can be prepared if necessary. At each of the time points (for example, 0, 15, 30, and 60 minutes), 150 μL of quench solution (100% acetonitrile with 0.1% formic acid) with internal standard was transferred to each well. Besides the zero minute controls, mixtures containing the same components except the NADPH can also be prepared as the negative control. Verapamil was included as a positive control to verify assay performance. Plates were sealed, vortexed, and centrifuged at 4° C. for 15 minutes at 4000 rpm. The supernatant is transferred to fresh plates for LC/MS/MS analysis.
(§3) Summarized conditions: [Compound]=[…], [LM]=0.5 mg/mL, [NADPH]=1 mM and/or [UDPGA]=1 mM, Buffer=100 mM Potassium Phosphate, pH 7.4 with 3 mM MgCl2, Time=0, 15, 30, and 60 min, and Temperature=37° C.
(§4) All samples were analyzed on LC/MS/MS using an AB Sciex API 4000 instrument, coupled to a Shimadzu LC-20AD LC Pump system. Analytical samples were separated using a Waters Atlantis T3 dC18 reverse phase HPLC column (20 mm×2.1 mm) at a flow rate of 0.5 mL/min. The mobile phase consisted of 0.1% formic acid in water (solvent A) and 0.1% formic acid in 100% acetonitrile (solvent B).
(§5) The extent of metabolism is calculated as the disappearance of the test compound, compared to the 0-min time incubation. Initial rates are calculated for the compound concentration and used to determine half-life (t½) values and subsequently, the intrinsic clearance (Clint). Clint=(0.693)(1/t½ (min))(g of liver/kg of body weight)(mL incubation/mg of microsomal protein)(45 mg of microsomal protein/g of liver weight)

[2] = Microsomal stability assay, human liver microsomes; type: in vitro ADME; conditions: pH 7.4, 1 μM compound, 0.5 mg/mL protein, 37° C., read-out: HLM +/− NADPH: Clint (μL/min/mg protein)
Description: as §1, §2, §3, §4, §5

SMILES	IC50 (androgen receptor (AR)) [nM]	microsomal CLint at 1 μM [1] [µL/min/mg]	microsomal CLint at 1 μM [2] [µL/min/mg]
CC(C)(c1ccc(OCc2ocnc2S(C)(=O)=O)cc1)c1cc(Cl)c(OCCCCl)c(Cl)c1 [Compound A3, 5-[[4-[1-[3,5-dichloro-4-(3-chloropropoxy)phenyl]-1-methyl-ethyl]phenoxy]methyl]-4-methylsulfonyl-oxazole]	500 to 2000	< 12	< 12
CC(C)(c1cnc(NCc2ocnc2S(C)(=O)=O)nc1)c1cc(Cl)c(OCCCl)c(Cl)c1 [Compound A27]	> 2000	≥ 48	< 12
CC(C)(c1cc(Cl)c(OCCCl)c(Cl)c1)c1ccc(OCc2ocnc2S(C)(=O)=O)c(C#N)c1 [Compound A30]	500 to 2000	12 to 48	12 to 48
CC(C)(c1ccc(NCc2ocnc2S(C)(=O)=O)cc1)c1cc(Cl)c(OCCCl)c(Cl)c1 [Compound A32, 4-(2-(3,5-dichloro-4-(2-chloroethoxy)phenyl)propan-2-yl)-N-((4-(methylsulfonyl)oxazol-5-yl)methyl)aniline Hydrochloride]	> 2000	≥ 48	12 to 48
Cc1nc(S(C)(=O)=O)c(COc2ccc(C(C)(C)c3cc(Cl)c(OCCCl)c(Cl)c3)cc2)o1 [Compound A34]	500 to 2000	12 to 48	< 12
CC(C)(c1ccc(OCc2nccc(NS(C)(=O)=O)n2)cc1)c1cc(Cl)c(OCCCl)c(Cl)c1 [Compound A42]	500 to 2000	< 12	< 12
CC(C)(c1ccc(OCc2ocnc2C(N)=O)cc1)c1cc(Cl)c(OCCCl)c(Cl)c1 [Compound A45]	500 to 2000	< 12	< 12
CC(C)(c1ccc(NC(=O)c2coc(NS(C)(=O)=O)n2)cc1)c1cc(Cl)c(OCCCl)c(Cl)c1 [Compound A49, N-(4-(2-(3,5-Dichloro-4-(2-chloroethoxy)phenyl)propan-2-yl)phenyl)-2-(methylsulfonamido)oxazole-4-carboxamide]	> 2000	< 12	12 to 48
CC(C)(c1ccc(OCc2cnc(S(C)(=O)=O)o2)cc1)c1cc(Cl)c(OCCCl)c(Cl)c1 [Compound A57]	< 500	≥ 48	12 to 48
CC(C)(c1ccc(OCc2ocnc2C#N)cc1)c1cc(Cl)c(OCCCl)c(Cl)c1 [Compound A65]	500 to 2000	12 to 48	12 to 48
CC(C)(c1ccc(OCc2coc(S(C)(=O)=O)n2)cc1)c1cc(Cl)c(OCCCl)c(Cl)c1 [Compound A68]	< 500	< 12	< 12
CC(C)(c1ccc(NC(=O)c2ocnc2S(C)(=O)=O)cc1)c1cc(Cl)c(OCCCl)c(Cl)c1 [Compound A73]	500 to 2000	< 12	< 12
CC(O)(c1ccc(OCc2ocnc2S(C)(=O)=O)cc1)c1cc(Cl)c(OCCCl)c(C#N)c1 (centres unmarked) [Compound A77]	500 to 2000	≥ 48	12 to 48
Cn1c(COc2ccc(C(C)(C)c3cc(Cl)c(OCCCl)c(Cl)c3)cc2)cnc1S(C)(=O)=O [Compound A78]	500 to 2000	< 12	< 12
C[C@@](O)(c1ccc(OCc2ocnc2S(C)(=O)=O)cc1)c1cc(Cl)c(OCCCl)c(C#N)c1 [Compound A107]	> 2000	–	12 to 48
COc1c(Cl)cc(C(C)(C)c2ccc(OCc3coc(NS(C)(=O)=O)n3)cc2)cc1C#N [Compound A161]	–	< 12	< 12
CC(C)(c1ccc(OCc2nc(C(N)=O)co2)cc1)c1cc(Cl)c(OCCCl)c(C#N)c1 [Compound A173]	> 2000	< 12	< 12
CC(C)(c1ccc(OCc2nc(C#N)co2)cc1)c1cc(Cl)c(OCCCl)c(C#N)c1 [Compound A174]	500 to 2000	12 to 48	< 12
CC(C)(c1ccc(C(=O)Nc2ccnc(NS(C)(=O)=O)n2)cc1)c1cc(Cl)c(OCCCl)c(Cl)c1 [Compound A189]	500 to 2000	< 12	< 12

The remaining lines, values ahead:

IC50 (androgen receptor (AR)) [nM]	microsomal CLint at 1 μM [1] [µL/min/mg]	microsomal CLint at 1 μM [2] [µL/min/mg]	SMILES
500 to 2000	≥ 48	12 to 48	CN1C(=O)N(Cc2ccc(C(C)(C)c3cc(Cl)c(OCCCCl)c(Cl)c3)cc2)C(=O)C1(C)C [Compound B1]
< 500	≥ 48	≥ 48	CN1C(=O)N(Cc2ccc(C(C)(C)c3cc(Cl)c(OCCCl)c(Cl)c3)cc2)C(=O)C1(C)C [Compound B2, 3-(4-(2-(3,5-Dichloro-4-(2-chloroethoxy)phenyl)propan-2-yl)benzyl)-1,5,5-trimethylimidazolidine-2,4-dione]
500 to 2000	< 12	< 12	CC(C)(c1ccc(CN2C(=O)N(S(C)(=O)=O)C(C)(C)C2=O)cc1)c1cc(Cl)c(OCCCl)c(Cl)c1 [Compound B3, 3-(4-(2-(3,5-Dichloro-4-(2-chloroethoxy)phenyl)propan-2-yl)benzyl)-5,5-dimethyl-1-(methylsulfonyl)imidazolidine-2,4-dione]
> 2000	–	12 to 48	CC(C)(c1ccc(N2C(=O)N(N)C(C)(C)C2=O)cc1)c1cc(Cl)c(OCCCl)c(Cl)c1 [Compound B6]
> 2000	< 12	< 12	CC(C)(c1ccc(N2C(=O)N(S(C)(=O)=O)C(C)(C)C2=O)cc1)c1cc(Cl)c(OCCCl)c(Cl)c1 [Compound B7]
500 to 2000	–	≥ 48	CN1C(=O)N(Cc2ccc(C(C)(C)c3cc(Cl)c(OCCCl)c(Cl)c3)cc2C#N)C(=O)C1(C)C [Compound B8]
< 500	12 to 48	12 to 48	Cc1cc(C(C)(C)c2ccc(CN3C(=O)N(S(C)(=O)=O)C(C)(C)C3=O)c(C(N)=O)c2)cc(Cl)c1OCCCl [Compound B9]

— patent US11059795B2, “Androgen receptor modulators and methods for their use” (ESSA Pharma, Inc., priority 2018, dated 2021)
